System: Anti haptocorrin antibodies (ELISA)
Assay: Cross-reactivity of the haptocorrin ELISA towards other cobalamin binding proteins
Set-up: species or system rabbit
Conditions: 60 nmol/L in the assay mixture
Method: Antibodies. Anti haptocorrin was produced by DakoCytomation A/S, Denmark by immunising rabbits with 200 μg pure haptocorrin produced as previously described (12) and deglycosylated as described above. The gamma globulin fraction was pre-pared (13) from serum obtained after 7 immunisations.
ELISA. The principle of the ELISA assay used was an immobilised capture antibody (0.1 ug gamma globulin/well, rabbit nr F7773) catching the analyte and a biotinylated detection antibody (gamma globulin 3 ug/L, rabbit nr 7772) visualised by avidin/Horse Radish Peroxidase (HRP). Colour development by addition of 3,3′,5,5′-tetramethyl-benzidin was proportional to the concentration of analyte. The assay procedure was as previously described for transcobalamin (14, 15). In brief, calibrator, sample or control (100 μL, final dilution 1:30) was incubated for 1 hour at room temperature prior to washing and incubation for 30 min with the biotinylated detection antibody. The attached biotinylated antibody was detected employing avidin/HRP and colour development was determined by measuring the absorbance at 420 nm and correcting for the absorbance at 620 nm. The calibrator employed was deglycosylated pure human haptocorrin. All samples were run in true duplicates, where deglycosylation was performed on two independent samples.
Samples. […]

cross-reactivity in haptocorrin ELISA: No cross-reactivity
Substance: intrinsic factor: cobalamin binding protein; pure IF dissolved in phosphate buffer 0.1 M containing albumin 0.1%
